From article PMC11109052, “Metabolism characterization and toxicity of N-hydap, a marine candidate drug for lung cancer therapy by LC–MS method” (Natural Products and Bioprospecting, 2024)

Tests used:
[1] = test system: UGT1A6; test: DME activity ex vivo in MLMs and MKMs: UGT1A6 (Sero-G from Sero); parameters: species or system mice; key to UGT1A6 Enzymatic activity: ↑: up-regulation; ↓: down-regulation; –: no change
Method: (§1) Mice were randomly divided into four groups, with eight animals in each group. The mice received oral pretreatment with N-hydap for 7 days at doses of 2, 5, and 10 mg/kg/day, which were considered as the low dose, medium dose, and high dose, respectively. Correspondingly, the control group received PBS. On the 8th day, the liver and kidneys were removed, and organs from eight mice per group were combined to prepare MLMs and MKMs using the detailed procedures above. Subsequently, we determined the activity of CYP and UGT enzymes by specific substrate metabolized with MLMs (0.5 mg/mL) and MKMs (0.2 mg/mL) in vitro. Specifically, the following selective substrates were used for the respective enzymes: PH (1 μM) for CYP1A2, DIC (1 μM) for CYP2C9, MP (90 μM) for CYP2C19, DM (1 μM) for CYP2D6, CZX (10 μM) for CYP2E1, Tes (1 μM) for CYP3A4, SN38 (1 μM) for UGT1A1, CACD (100 μM) for UGT1A3, Sero (20 μM) for UGT1A6, and Prop (1 μM) for UGT1A9. All substrates were dissolved in methanol or DMSO. The incubation procedure was carried out as mentioned above, and the reaction was terminated with VER (20 ng/mL) in ESI+ mode and CLP (200 ng/mL) in ESI− mode. In the ex vivo experiments, the activity of enzymes was measured by quantifying the production of various metabolites (nM/mg protein/min). The metabolites and their corresponding enzymes are as follows: APAP from PH, 4-OH-DIC from DIC, 4-OH-MP from MP, DXO from DM, 6-OH-CZX from CZX, 6-OH-Tes from Tes, SN38-G from SN38, CACD-G from CACD, Sero-G from Sero, Prop-G from Prop. The measurements were performed using multiple reaction monitoring (MRM) transitions, which are specific mass spectrometry transitions used for quantification. The optimized parameters for each metabolite, such as declustering potential and collision energy, were described in Supplementary Table 1. All experiments were conducted in triplicate, to ensure accuracy and reproducibility.

[2] = target: T1, UGT1A1 (Homo sapiens, UniProt P22309); test: Incubation with recombinant human UGT isoforms: UGT1A1; type: in vitro ADME; details: recombinant UGT 2 μg/mL
T1 construct: purchased Cypex (Scotland, UK)
Method: Incubation of N-hydap (2.5 μM) with eight recombinant human CYP enzymes (CYP1A2, CYP2B6, CYP2C9, CYP2C19, CYP2D6, CYP3A4, CYP4A11 and CYP4F2) at three enzyme concentrations (2, 4, and 20 μg/mL) was conducted following the same procedure as described above for microsomes. Subsequently, incubation with N-hydap (1, 2.5, and 6 μM) and twelve recombinant human UGT isoforms (UGT1A1, UGT1A3, UGT1A4, UGT1A6, UGT1A7, UGT1A8, UGT1A9, UGT1A10, UGT2B4, UGT2B7, UGT2B15 and UGT2B17) was performed, with the enzyme concentration used at 2 μg/mL. All reactions were carried out in triplicate.

[3] = test system: Cyp1a2; test: Western blot protein level after 7 days gavage: CYP1A2; type: in vivo, mice; parameters: key to CYP1A2 Protein expression: ↑: up-regulation; ↓: down-regulation; –: no change
Method: as §1, with “The optimized parameters for each metabolite, such as declustering potential and collision energy, were described in Supplementary Table 1. All experiments were conducted in triplicate, to ensure accuracy and reproducibility.” left out
After 7 days of N-hydap gavage, the liver and kidney tissues were lysed using RIPA buffer supplemented with a 1% protease inhibitor cocktail. […] Western blot signals were detected using an ECL chemiluminescence detection agent. The relative intensity of each protein band was scanned and quantified using Image J software.

[4] = test system: RoRγ; parameters: method as in PMID 35259480; details: cited from earlier work
[5] = test system: HKMs; test: Kinetics of N-hydap glucuronidation in HKMs; type: in vitro ADME, human; details: HKM
Method: Various microsomes including HLMs, HKMs, HIMs, RLMs, RKMs, MLMs and MKMs were involved in CYP and UGT reactions of N-hydap. A typical CYP incubation mixture included 0.5 mg/mL microsomes protein, 3.3 mM glucose-6-phosphate, 3.3 mM MgCl2, 0.4 U/mL glucose-6-phosphate dehydrogenase, and N-hydap (1, 2.5, or 10 μM) in the 50 mM potassium phosphate buffer (KPI, pH 7.4). The incubation mixture was preincubated at 37 °C for 5 min, and the reaction was started by adding NADP to form a NADPH-regenerating system. Simultaneously, the classic UGT reaction system consisted of 50 mM KPI, 5 mM MgCl2, 0.5 mg/mL microsomes, 0.125 mg/mL alamethicin, and 5.25 mg/mL saccharolactone. The reaction was initiated after supplying UDPGA. The CYP and UGT mixtures were incubated at 37 °C in a shaking water bath (80 rpm) for 1.5 h to enhance metabolite formation. To terminate the reaction, an ice-cold solution of Tes (50 ng/mL, dissolved in methanol and used as an internal standard) was added to half of the mixture volume. […]
The substrate concentrations used for HLMs were 0.05, 0.5, 2, 2.5, 5, 10, 25, 50, and 100 μM. […] The rates of N-hydap-G by enzymes were expressed as nmol/mg/min, representing the amount of metabolites formed per minute per milligram of protein. Kinetic parameters were determined by analyzing the Eadie–Hofstee plots. […]

T1 sequence (P22309 26-533): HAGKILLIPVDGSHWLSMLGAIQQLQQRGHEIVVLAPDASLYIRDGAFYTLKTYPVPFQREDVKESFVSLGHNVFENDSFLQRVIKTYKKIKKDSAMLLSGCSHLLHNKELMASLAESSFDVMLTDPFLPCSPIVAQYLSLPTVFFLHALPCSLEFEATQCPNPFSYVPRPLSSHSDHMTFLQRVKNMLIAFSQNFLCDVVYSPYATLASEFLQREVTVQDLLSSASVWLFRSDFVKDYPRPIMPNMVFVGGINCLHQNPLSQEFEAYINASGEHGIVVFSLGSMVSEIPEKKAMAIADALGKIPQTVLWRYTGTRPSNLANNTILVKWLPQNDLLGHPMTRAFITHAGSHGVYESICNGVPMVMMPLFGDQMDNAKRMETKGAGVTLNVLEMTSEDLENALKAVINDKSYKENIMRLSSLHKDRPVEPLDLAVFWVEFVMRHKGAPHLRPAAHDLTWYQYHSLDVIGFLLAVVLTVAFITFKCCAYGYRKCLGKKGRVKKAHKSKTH

**Q.** Which results are given for `CC1CCC2C(C=CC(C)C2C(=O)c2c(O)c(C3(O)CCC(O)C4OC43)cn(O)c2=O)C1` (stereo not drawn) [N-hydap, N-Hydroxyapiosporamide]?
**A.** UGT1A6 Enzymatic activity ([1]; Kidney): –; UGT1A6 Enzymatic activity ([1]; Liver): ↓; reduction of formation rate of Sero-G vs control ([1]; liver microsomes of mice pretreated 7 days p.o.): 72%; contribution of UGT1A1 to formation of N-hydap-G [2]: secondary contributors; CYP1A2 Protein expression ([3]; Kidney): ↑; up-regulation of protein levels of CYP1A2 ([3]; mice, 10 mg/kg p.o. 7 days, kidney): 117%; decrease of protein levels of CYP1A2 ([3]; mice, p.o. 7 days, liver): 68%; action on RoRγ [4]: RoRγ antagonist; Km [5]: 240 µM
